In patent publication US3947411A, “Novel 1-aryl-2-arylalkyl-3-or-4-[4'-(substituted-alkyl)piperazino-1']butanols- 2-or-butenes-1, and methods of manufacture thereof” (Warner-Lambert Company, priority 1972, dated 1976):
Values after ≈ are worked out from the molar mass of the structure shown.

Assays:
Solubility in water = assay type: physicochemical; settings: hydrochlorides or oxalates, read-out: solubilities (in water)
How it was run: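 Water solubility given for the hydrochloride salts of most compounds and for the oxalate salts of a few.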

E. coli [1] = assay: Minimum inhibitory concentration for bacteria, tube dilution, E. coli (Table V); assay type: cell-based; settings: Escherichia coli, 48 h, read-out: Minimum Inhibitory Concentration, E. coli
C. albicans [2] = assay: Minimum inhibitory concentration for fungi in presence of serum, C. albicans (Table VI); assay type: cell-based; settings: Candida albicans; Sabouraud nutrient broth + 10% bovine serum, 28°C, 48 hours
A. niger [3] = assay: Minimum inhibitory concentration for fungi in presence of serum, A. niger (Table VI); assay type: cell-based; settings: Aspergillus niger; Sabouraud nutrient broth + 10% bovine serum, 28°C, 48 hours
E. coli [4] = assay: Minimum inhibitory concentration for bacteria in presence of serum, E. coli (Table VII); assay type: cell-based; settings: Escherichia coli; nutrient broth + 10% serum, 37°C, 48 hours
Candida albicans = assay: Agar well inhibition zone test against fungi, Candida albicans (Table II); settings: quantity per well giving inhibition zone (500, 50, 5 μg tested); Sabouraud agar, 28°, 48 hours
Aspergillus niger = assay: Agar well inhibition zone test against fungi, Aspergillus niger (Table II); settings: quantity per well giving inhibition zone (500, 50, 5 μg tested); Sabouraud agar, 28°, 48 hours
Method: The efficacy of the compounds against fungi was tested as follows:
The test organisms, in this case the blastomycete Candida albicans and the mold Aspergillus niger, were inoculated onto Sabouraud agar plates by pouring a photometrically adjusted standard suspension of organisms on the plate. After inoculation, wells with a diameter of 5.0 mm were punched in the agar, and filled with 50 ul of the compound solution mentioned before. The quantity of compound applied thus amounted to 500 μg, 50 μg and 5 μg. After incubation at 28° for 48 hours, the quantity of compound was determined at which an inhibition of the organism's growth, in form of an inhibition zone around the corresponding well, was present.

Escherichia coli = assay: Agar well inhibition zone test against bacteria, Escherichia coli (Table III); settings: quantity per well giving inhibition zone (500, 50, 5 μg tested); nutrient agar, 37°, 24 hours
Method: The efficacy of the compounds against bacteria was tested as follows:
The test organisms, in this case Staphylococcus aureus and Escherichia coli, were inoculated on nutrient agar as described in Example 12, wells were punched, and the solutions of the compounds were transferred to fill the wells. The quantity of compound in the wells amounted again to 500 μg, 50 μg and 5 μg.
After incubation a 37° for 24 hours the quantity of compound was determined at which an inhibition of the organism's growth, in the form of an inhibition zone around the corresponding well, occurred.

A. niger [5] = assay: Minimum inhibitory concentration for fungi, tube dilution, A. niger (Table IV); settings: Aspergillus niger, 48 h, read-out: Minimum Inhibitory Concentration, A. niger
Method: (§1) A tube dilution series of the respective compound in Sabouraud nutrient broth, whose individual tubes contained concentrations of 1024 μg, 512 μg, 256 μg, 128 μg, 64 μg, 32 μg, 16 μg, 8 μg, 4 μg, 2 μg, 1.1 μg and 0.5 μg/ml, was prepared and inoculated with a photometrically standardized suspension of the test organisms or the spores thereof.

C. albicans [6] = assay: Minimum inhibitory concentration for fungi, tube dilution, C. albicans (Table IV); settings: Candida albicans, 48 h, read-out: Minimum Inhibitory Concentration, C. albicans
Method: as §1

Staphylococcus aureus = assay: Agar well inhibition zone test against bacteria, Staphylococcus aureus (Table III); settings: quantity per well giving inhibition zone (500, 50, 5 μg tested); nutrient agar, 37°, 24 hours
Staph. aureus = assay: Minimum inhibitory concentration for bacteria, tube dilution, Staph. aureus (Table V); settings: Staphylococcus aureus, 48 h, read-out: Minimum Inhibitory Concentration, Staph. aureus
Method: A tube dilution series of the respective compound in nutrient broth whose individual tubes contained concentrations of 1024 μg, 512 μg, 256 μg, 128 μg, 64 μg, 32 μg, 1 μg, 8 μg, 4 μg, 2 μg, 1.1 μg and 0.5 μg/ml was prepared and inoculated with a photometrically standardized suspension of the test organisms.

[7] = system: Mycobacterium tuberculosis II 37 RV (typus humanus); assay: Efficacy against Mycobacteria, Tb-broth dilution series (Table I); assay type: cell-based; settings: 504 h, Dubos Tb-broth + 10% bovine serum, 21 days, read-out: Minimum Inhibitory Concentration

| SMILES | solubility (Solubility in water) [mg/mL] | MIC (E. coli [1]) [µg/mL] | MIC (C. albicans [2]) [µg/mL] | MIC (A. niger [3]) [µg/mL] | MIC (E. coli [4]) [µg/mL] | Inhibition Area at μg, Cand. albicans (Candida albicans) [µg] | Inhibition Area at μg, Asp. niger (Aspergillus niger) [µg] | Inhibition Area at μg, E. coli (Escherichia coli) [µg] | MIC (A. niger [5]) [µg/mL] | MIC (C. albicans [6]) [µg/mL] | Inhibition Area at μg, Staph. aureus (Staphylococcus aureus) [µg] | MIC (Staph. aureus) [µg/mL] | MIC [7] [µg/mL] |
| --- | --- | --- | --- | --- | --- | --- | --- | --- | --- | --- | --- | --- | --- |
| CC(C(=Cc1ccc(Cl)cc1)Cc1ccc(Cl)cc1)N1CCN(CCN2CCN(C)CC2)CC1 (stereo not drawn) [XLII, 1-p-chloro-phenyl-2-p-chloro-benzyl-3-{4'-[β-(4"-methyl-piperazino-1")-ethyl]-piperazino-1'}-butene-1] | 100 (≈ 199000 µM) | 32 (≈ 63.8 µM) | 256 | 32 | 1020 | 5 | 5 | 5 | < 0.5 | < 0.5 | 5 | 32 (≈ 63.8 µM) | – |
| C(=C(CCN1CCN(CCN2CCCCC2)CC1)Cc1ccccc1)c1ccccc1 [LXIV] | 100 (≈ 239000 µM) | 256 (≈ 613 µM) | 128 | 8 | – | 50 | 5 | 5 | 8 (≈ 19.2 µM) | 8 (≈ 19.2 µM) | 5 | 8 (≈ 19.2 µM) | – |
| CC(N1CCN(C)CC1)C(O)(Cc1ccc(Cl)cc1)Cc1ccc(Cl)cc1 (stereo not drawn) [XLVIII, 1-p-chlorophenyl-2-p-chlorobenzyl-3-(4'-methyl-piperazino-1')-butanol-2] | 50 (≈ 123000 µM) | > 1020 | > 1020 | 256 | – | 50 | 50 | 50 | 4 (≈ 9.82 µM) | 8 (≈ 19.6 µM) | 50 | 128 (≈ 314 µM) | – |
| Clc1ccc(C=C(CCN2CCN(CCN3CCCCC3)CC2)Cc2ccc(Cl)cc2)cc1 [LXIII, 1-(p-chloro-phenyl)-2-(p-chlorobenzyl)-4-[4'-(β-piperidino-ethyl)-piperazino-1']-butene-1] | < 10 | 64 (≈ 132 µM) | 128 | 32 | – | 5 | 50 | 5 | < 0.5 | 32 (≈ 65.8 µM) | 5 | 8 (≈ 16.4 µM) | – |
| CC(N1CCN(CCO)CC1)C(O)(Cc1ccc(Cl)cc1)Cc1ccc(Cl)cc1 (stereo not drawn) [XLVII, 1-(p-Chloro-phenyl)-2-(p-chloro-benzyl)-3-[4'-(β-hydroxyethyl)-piperazino-1']-butanol-2] | 100 (≈ 229000 µM) | – | 256 | 64 | > 1020 | 5 | 5 | 500 | 32 (≈ 73.2 µM) | 32 (≈ 73.2 µM) | 5 | 4 (≈ 9.14 µM) | – |
| CC(C(=Cc1ccccc1Cl)Cc1ccccc1Cl)N1CCN(CCN2CCN(C)CC2)CC1 (stereo not drawn) [LXVI] | 100 (≈ 199000 µM) | 128 (≈ 255 µM) | 1020 | 128 | – | 5 | 5 | 50 | < 0.5 | 4 (≈ 7.98 µM) | 5 | 32 (≈ 63.8 µM) | – |
| CC(C(=Cc1ccccc1)Cc1ccccc1)N1CCN(CCN2CCN(CCc3ccccc3)CC2)CC1 (stereo not drawn) [XXXIX, 1-phenyl-2-benzyl-3-{4'-[β-(4"-β-phenethylpiperazino-1")-ethyl]-piperazino-1'}-butene-1] | 50 (≈ 95600 µM) | > 1020 | 64 | 128 | – | 5 | 5 | 50 | 32 (≈ 61.2 µM) | 4 (≈ 7.65 µM) | 5 | 32 (≈ 61.2 µM) | – |
| CC(N1CCN(CCN(C)Cc2ccccc2)CC1)C(O)(Cc1ccccc1)Cc1ccccc1 (stereo not drawn) [XV, 1-phenyl-2-benzyl-3-[4'-(β-N-methyl-N-benzylamino-ethyl)-piperazino-1']-butanol-2] | 100 (≈ 212000 µM) | > 1020 | 512 | – | – | 50 | 50 | 50 | 128 (≈ 271 µM) | 16 (≈ 33.9 µM) | 50 | > 1020 | – |
| CCCCCCCCN1CCN(CCCCCCN2CCN(C(C)C(=Cc3ccccc3)Cc3ccccc3)CC2)CC1 (stereo not drawn) [LXII, 1-phenyl-2-benzyl-3-[4'-w-(4"-n-octyl-piperazino-1")-n-hexyl-piperazino-1']-butene-1] | 25 (≈ 42600 µM) | 1020 (≈ 1740 µM) | 1020 | 512 | – | 5 | 50 | 50 | < 0.5 | 2 (≈ 3.41 µM) | 5 | 16 (≈ 27.3 µM) | – |
| Cc1cccc(CC(O)(Cc2cccc(C)c2)C(C)N2CCN(C)CC2)c1 (stereo not drawn) [IL, 1-m-tolyl-2-(m-methyl-benzyl)-3-(4'-methyl-piperazino-1')-butanol-2] | 50 (≈ 136000 µM) | – | 256 | 128 | – | 50 | 50 | 500 | 32 (≈ 87.3 µM) | 32 (≈ 87.3 µM) | 50 | 128 (≈ 349 µM) | 100 |
| CC(C(=Cc1ccccc1)Cc1ccccc1)N1CCN(CCN2CCCC2)CC1 (stereo not drawn) [XXIX, 1-phenyl-2-benzyl-3-[4'-(β-pyrrolidino-ethyl)-piperazino-1']-butene-1] | 100 (≈ 248000 µM) | – | 128 | 32 | – | 50 | 50 | 500 | 16 (≈ 39.6 µM) | 8 (≈ 19.8 µM) | 50 | 128 (≈ 317 µM) | 10 |
| CC(C(=Cc1ccccc1)Cc1ccccc1)N1CCN(CCN(C)C)CC1 (stereo not drawn) [XXVI, 1-phenyl-2-benzyl-3-[4'-(β-dimethylamino-ethyl)-piperazino-1']-butene-1] | 100 (≈ 265000 µM) | 128 (≈ 339 µM) | 16 | 32 | – | 5 | 5 | 50 | 4 (≈ 10.6 µM) | 8 (≈ 21.2 µM) | 50 | 128 (≈ 339 µM) | – |
